Values quoted from earlier work, collected in publication PMC8480965 (The Journal of General Physiology, 2021).

Legend:
[1] = tested on: Kv2.1; conditions: sphingomyelin converted to ceramide-1-phosphate; ref Milescu et al., 2009
[2] = tested on: Kv2.1; conditions: ref Tilley et al., 2019
[3] = tested on: Kv2.1; conditions: independent binding to each voltage sensor; ref Lee et al., 2003

Substance	enhancement of GxTX affinity for Kv2.1 by sphingomyelinase D [1]	V1/2 of gating charge–voltage (QV) relation ([2]; Kv2.1 in saturating GxTX) [mV]	z of gating charge–voltage (QV) relation ([2]; Kv2.1 in saturating GxTX)	stabilization of voltage sensor in resting conformation with GxTX bound ([2]; estimated previously)	deactivation rate of voltage sensors bound by GxTX [2]	mode of action on Kv2.1 [2]	inhibition of total gating charge movement per voltage sensor bound [3] [%]
guangxitoxin-1E (EGECGGFWWKCGSGKPACCPKYVCSPKWGLCNFPMP; UniProt P84835 1-36, looked up) [GxTX]	fourfold	47 ± 1	1.6 ± 0.1 e0	5,400 fold	faster deactivation rate	partial inverse agonist of Kv2.1	–
Hanatoxin	–	–	–	–	–	–	~25
